Like-named read-outs stand apart in the source and are kept apart here.
Test system: MCF-7 cells
Experiment: In vitro test of cell activity (MCF-7 cells, insulin stimulation, ELISA-One fluorescence)
Format: cell-based
Conditions: Homo sapiens, MCF7, MCF-7 cells; for inhibition at 0.5 µM: conc. 0.5 μM; for inhibition at 0.25 µM: conc. 0.25 μM; for inhibition at 1 µM: conc. 1 μM
Description: Example In Vitro Tests of Cell Activities Experimental Steps and Methods:
1) MCF-7 cells were inoculated at the density of 2.5×10^4 cells/well into 96-well plates (the culture medium used should be a complete culture medium containing 10% FBS).
2) On the next day, the medium in each well was drawn out. A certain concentration (preliminary screening) or a series of concentration (IC50 test) of compounds were dissolved in a culture medium without serum and added to the 96-well plates to culture cells for 2 hours.
3) Insulin was dissolved in a culture medium without serum, added to the cultured cells and incubated for 30 minutes, wherein the final concentration of insulin was […].
4) A lysis solution was prepared according to the following method during the waiting period for the reaction:
a) Enhancer solution was removed from the refrigerator to melt in advance.
b) Enhancer solution was diluted 10 times with the 5× Lysis Buffer to give a concentrated lysis solution.
c) The concentrated lysis solution was diluted 5 times with double distilled water to give the lysis solution.
5) The medium in each well was completely removed and each well was quickly rinsed with PBS once.
6) 150 μl of the freshly prepared lysis solution was added to each well and shaked at room temperature for 10 minutes.
7) After confirming that all cells were detached, the lysis solution together with the cell fragments was transferred into a 1.5 ml tube.
8) The tube was shaked on vortes mixer to make the lysis solution and cells mix completely and then the mixture was centrifugated at 4° C. under 12000 g for 10 minutes.
9) The number of strips of ELISA-one micro-well plate that is required was calculated. The needless strips were removed from the frame, put back into the storage bag and sealed. Before the strips of micro-well plate were used, 200 μl of double distilled water was used to rinse each well to remove preservative.
10) 50 μl of antibody mixture was added to each well. (The antibody mixture solution was prepared by mixing the medium antibody reagent and the enzyme labeled antibody reagent with an equal proportion. The preparation of antibody mixture didn't need vortex.)
11) 25 μl of cell lysates was added to each well of ELISA-One micro-well plate. The micro-well plate was covered with adhesive sealing film and incubated on a micro-well plate oscillation instrument at room temperature for 1 hour.
12) Each well was rinsed with 150 μl of 1× rinsing buffer 3 times. After the last rinsing, the rinsing buffer in the well was completely removed. If necessary, the 1× rinsing buffer could be allowed to stay in the micro-well plate for up to 30 minutes so that the substrate mixed solution could be prepared during such time period.
13) The substrate mixed solution should be prepared just before each use, 10 μl of the substrate mixed solution was added to each well and the micro-well plate was sealed with tin-foil and incubated on the micro-well plate oscillation instrument at room temperature for 10 minutes.
14) 10 μl of stop solution was added to each well and mixed slightly (5-10 seconds) on the micro-well plate oscillation instrument.
15) The corresponding ELISA-One filter group was assembled and used to read the fluorescence signal intensity.

SMILES | inhibition at 0.5 µM (read-out: % inhibition AKT) | inhibition at 0.5 µM (read-out: % inhibition p70s6k) | IC50 (read-out: IC50 p-AKT) | also measured
COc1ncc(-c2ccc3nc(C)cc(=O)n3c2)cc1NS(=O)(=O)c1ccc(F)cc1C [compound 229] | 31.7% | 1.4% | – | –
COc1ncc(-c2ccc3ncc(N)c(=O)n3c2)cc1NS(=O)(=O)c1ccccc1Cl [compound 91] | 94.6% | 89.2% | ≤ 50 nM | IC50 (read-out: IC50 p-p70S6K): 50 to 100 nM
COc1ncc(-c2ccc3ncc(OCCOC(C)C)c(=O)n3c2)cc1NS(=O)(=O)c1sc(C)nc1C [compound 194] | – | – | ≤ 50 nM | –
COc1ncc(-c2ccc3nccc(=O)n3n2)cc1NS(=O)(=O)c1ccc(F)cc1Cl [compound 78] | 72.6% | 32.6% | – | –
COc1ncc(-c2cn3c(=O)ccnc3cc2C)cc1NS(=O)(=O)c1ccc(F)cc1F [compound 121, 2,4-difluoro-N-(2-methoxy-5-(8-methyl-4-oxo-4H-pyrido[1,2-a]pyrimidin-7-yl)pyridin-3-yl)benzsulfamide] | -27.1% | -2.2% | – | –
COc1ncc(-c2cn3c(=O)ccnc3cc2C)cc1NS(=O)(=O)c1ccc(F)cc1C [compound 126] | -12.7% | 2.4% | – | –
COc1ncc(-c2ccc3nccc(=O)n3c2)nc1NS(=O)(=O)c1ccc(F)cc1F [compound 33] | -40.9% | 0.8% | – | –
COc1ncc(-c2cn3c(=O)ccnc3cn2)cc1NS(=O)(=O)c1c(F)cccc1F [compound 46] | 60.3% | 13.3% | – | –
COCCOc1ncc(-c2ccc3ncc(Cl)c(=O)n3c2)cc1NS(=O)(=O)c1ccc(F)cc1F [compound 231, N-[5-(3-chloro-4-oxo-4H-pyrido[1,2-a]pyrimidin-7-yl)-2-(2-methoxy-ethoxy)-pyridin-3-yl]-2,4-difluorobenzsulfamide] | – | – | > 250 nM | –
COc1ncc(-c2ccc3nc(C)cc(=O)n3c2)cc1NS(=O)(=O)c1ccc(C(F)(F)F)cc1 [compound 223] | – | – | – | inhibition at 0.25 µM (read-out: % inhibition AKT): 17.9%; inhibition at 0.25 µM (read-out: % inhibition p70s6k): -1.5%
COc1ncc(-c2ccc3nccc(=O)n3c2)cc1NS(=O)(=O)c1sccc1C [compound 37] | 95.8% | 90.3% | ≤ 50 nM | IC50 (read-out: IC50 p-p70S6K): 100 to 250 nM
CCOc1ncc(-c2ccc3nccc(=O)n3c2)cc1NS(=O)(=O)c1ccccc1F [compound 29] | – | – | – | inhibition at 1 µM (read-out: % inhibition AKT): 59.6%; inhibition at 1 µM (read-out: % inhibition p70s6k): 26.5%
COc1ncc(-c2ccc3nccc(=O)n3c2)cc1NS(=O)(=O)c1ccccc1C [compound 20] | – | – | ≤ 50 nM | inhibition at 1 µM (read-out: % inhibition AKT): 93.8%; inhibition at 1 µM (read-out: % inhibition p70s6k): 89.9%; IC50 (read-out: IC50 p-p70S6K): 100 to 250 nM
COc1ncc(-c2ccc3n[nH]c(=O)n3c2)cc1NS(=O)(=O)c1ccc(F)cc1F [compound 235] | – | – | 100 to 250 nM | –
COCCOc1cnc2ccc(-c3cnc(OC)c(NS(=O)(=O)c4cc(Cl)c(F)cc4F)c3)cn2c1=O [compound 273] | – | – | 100 to 250 nM | –
COc1ncc(-c2ccc3ncc(F)c(=O)n3c2)cc1NS(=O)(=O)c1ccccc1F [compound 64] | 87.8% | 91.7% | ≤ 50 nM | IC50 (read-out: IC50 p-p70S6K): ≤ 50 nM
COCCOc1cnc2ccc(-c3cnc(OC)c(NS(=O)(=O)c4ccc(F)c(F)c4F)c3)cn2c1=O [compound 274] | – | – | 50 to 100 nM | –
CCOCCOc1cnc2ccc(-c3cnc(OC)c(NS(=O)(=O)c4sc(C)nc4C)c3)cn2c1=O [compound 199] | – | – | ≤ 50 nM | –
COc1ncc(-c2ccc3ncc(-n4ccc(C)n4)c(=O)n3c2)cc1NS(=O)(=O)c1ccc(Cl)s1 [compound 217] | – | – | – | inhibition at 0.25 µM (read-out: % inhibition AKT): 54%; inhibition at 0.25 µM (read-out: % inhibition p70s6k): 67.7%
COc1ccc(S(=O)(=O)Nc2cc(-c3ccc4nccc(=O)n4c3)cnc2OC)cc1 [compound 24] | – | – | 50 to 100 nM | inhibition at 1 µM (read-out: % inhibition AKT): 94.6%; inhibition at 1 µM (read-out: % inhibition p70s6k): 93.2%; IC50 (read-out: IC50 p-p70S6K): 100 to 250 nM

From patent US9868737B2, “Pyridino[1,2-A]pyrimidone analogue used as MTOR/P13K inhibitor” (CISEN PHARMACEUTICAL CO., LTD., priority 2014, dated 2018)
